This is an account of results in publication PMC10539439 (Pharmacological Reports, 2023).

The series is described as follows: Blood pressure, 24-h telemetric method, normotensive rats. It is filed as in vivo, rat. To be noted: telemetry, 5 mg/kg b.w., first 15 or 15 and 30 min after 1st, 7th and 14th administration, vs control. The procedure:
The blood pressure of rats treated with the tested compound was measured for a 24 h period after ip treatment (5 mg/kg b.w.) with a special telemetric system Stellar (TSE-Systems, Germany).
Surgery: The operation was carried out over 30 min under sterile conditions. Rats were anaesthetized with ketamine and xylasine (intramuscular injection: 100 mg/kg and 10 mg/kg). Before surgery and for 7 days after, the animals were also treated with cefuroxime (20 mg/kg/day) via intramuscular injection and ketoprofen (5 mg/kg/day) via ip injection. […] The transmitter was sutured to the peritoneal cavity.
The rats were individually caged for 2 weeks to heal after surgical cut. The animals were then placed in pairs in cages to reduce their isolation stress. Blood pressure was measured: before ip administration of the compounds – time 0 min and 24 h thereafter.

In the case of `Cl.N=C(N)NN=Cc1c(Cl)cc(O)cc1Cl` [4-OH-Guanabenz, 2-[(2,6-Dichloro-4-hydroxyphenyl)methylene]hydrazinecarboximidamide Hydrochloride], the “effect on systolic and diastolic blood pressure (in words)” value was “significantly higher”.
